The results in this text go back to patent US8513285B2, “3 or 4-substituted piperidine compounds” (SK Biopharmaceuticals Co., Ltd., priority 2008, dated 2013).

In general, inhibition refers to the change of the read-out against control, counted positive when it falls.

SMILES strings stand for the structures.

Assay [1] concerns the target T1, human serotonin transporter (Homo sapiens, UniProt P31645).
T1 construct: expressed in transfected cells; host or cells: HEK-293
Nature of the assay: Serotonin transporter reuptake inhibition assay. Format: cell-based. Particulars: HEK293; 100 nM; HEK-293 cells with human serotonin transporter; [3H]Serotonin uptake; read-out: Inhibition % at 100 nM 5-HT reuptake. The protocol: Serotonin Transporter Reuptake Inhibition Assay
The method to test the ability of compounds to inhibit transporters from reuptake of serotonin followed Gu H. et al., J Biol. Chem., 1994, 269, p […].
The recombinant HEK-293 cells with human serotonin transporter were plated. Test compounds were pre-incubated with cells (2×10^5/ml) in modified Tris-HEPES buffer pH 7.1 for 20 minutes at 25° C. and then they were incubated for additional 10 minutes after 65 nM of [^3H]Serotonin was added. Bound cells were filtered and counted to determine [^3H]Serotonin uptake. Reduction of [^3H]Serotonin uptake by 50 percent or more (≧50%) relative to 10 μM fluoxetine indicates significant inhibitory activity. Compounds were screened at 10, 1, 0.1, 0.01 and 0.001 μM for IC50s.

The target in assay [2] is T2, human recombinant norepinephrine transporter (Homo sapiens, UniProt P23975).
T2 construct: expressed in transfected cells; host or cells: MDCK
T2 sequence (P23975 whole entry): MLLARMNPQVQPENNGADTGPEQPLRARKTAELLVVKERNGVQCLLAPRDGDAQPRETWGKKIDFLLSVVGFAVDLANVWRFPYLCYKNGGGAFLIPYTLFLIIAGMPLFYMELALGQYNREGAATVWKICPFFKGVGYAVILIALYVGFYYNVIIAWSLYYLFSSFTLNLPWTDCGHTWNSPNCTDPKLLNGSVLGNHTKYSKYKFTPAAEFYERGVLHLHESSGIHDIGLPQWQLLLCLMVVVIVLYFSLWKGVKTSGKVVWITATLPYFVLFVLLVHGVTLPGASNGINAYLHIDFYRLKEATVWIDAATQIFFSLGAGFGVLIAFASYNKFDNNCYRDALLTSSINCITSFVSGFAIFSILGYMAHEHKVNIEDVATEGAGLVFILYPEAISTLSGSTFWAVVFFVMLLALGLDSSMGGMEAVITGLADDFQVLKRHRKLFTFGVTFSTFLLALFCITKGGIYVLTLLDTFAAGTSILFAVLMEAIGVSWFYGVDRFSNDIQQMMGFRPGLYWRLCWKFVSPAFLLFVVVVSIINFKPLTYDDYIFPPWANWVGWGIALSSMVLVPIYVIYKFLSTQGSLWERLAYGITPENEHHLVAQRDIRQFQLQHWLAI
The assay can be described thus: Norepinephrine transporter reuptake inhibition assay. The following applies: 100 nM; MDCK cells with human norepinephrine transporter; [3H]Norepinephrine uptake; read-out: Inhibition % at 100 nM NE reuptake. Format: cell-based. The method, then: Norepinephrine Transporter Reuptake Inhibition Assay
Norepinephrine transporter reuptake inhibition assay used the method described by Galli A. et al., J Exp Biol., 1995, 198, p 2197˜2212.
MDCK cells with stably expressed human recombinant norepinephrine transporter were plated one day. Test compounds were pre-incubated with cells (2×10^5/ml) in modified Tris-HEPES buffer pH 7.1 for 20 minutes at 25° C. and then they were incubated for additional 10 minutes after 25 nM of [^3H]Norepinephrine was added. A lysate was obtained from solubilized cells and the filtered lysate was counted to determine [^3H]Norepinephrine uptake. Reduction of [^3H]Norepinephrine uptake by 50 percent or more (≧50%) relative to 10 μM desipramine indicates significant inhibitory activity. Compounds were screened at 10, 1, 0.1, 0.01 and 0.001 μM to determine their IC50s.

Assay [3] has as its target T3, human recombinant dopamine transporter (Homo sapiens, UniProt Q01959).
T3 construct: expressed in transfected cells; host or cells: CHO-K1
The assay can be described thus: Dopamine transporter reuptake inhibition assay. Format: cell-based. The following applies: 100 nM; CHO-K1 cells with human dopamine transporter; [3H]Dopamine uptake; read-out: Inhibition % at 100 nM DA reuptake. The method, then: Dopamine Transporter Reuptake Inhibition Assay
The assay followed the method modified from Pristupa Z. B. et al., Mol. Pharmacol., 1994, p 125˜135.
CHO-K1 cells with human recombinant dopamine transporter were plated. Test compounds were pre-incubated with cells (4×10^5/ml) in modified Tris-HEPES buffer pH 7.1 for 20 minutes at 25° C. and then they were incubated for additional 10 minutes after 50 nM of [^3H]Dopamine was added. A lysate is obtained from solubilized cells and counted to determine [^3H]Dopamine uptake. Reduction of [^3H]Dopamine uptake by 50 percent or more (≧50%) relative to 10 μM nomifensine indicates significant inhibitory activity. Compounds were tested at 10, 1, 0.1, 0.01 and 0.001 μM for IC50s.

Assay [4] relates to mice. Nature of the assay: Forced swimming test in mice (FST). Format: in vivo. Particulars: Mus musculus, 0.5 h, 30ip, 30 min after administration, vs control group, read-out: Reduction % at 30ip (duration of immobility). The protocol: Forced Swimming Test in Mice (FST)
The Forced swimming test is an animal model based on the rodent's behavioral repertoire for screening drugs with potential antidepressant activity. As in several other models used for this goal, an uncontrollable stress stimulus produces behavioral changes that are sensitive to antidepressant treatment.
The mice were intraperitoneally treated with the test compound with an injection volume of […]. The group treated with 30% PEG400 served as a control group. Thirty minutes following administration, mice were individually forced to swim in a transparent glass vessel (14 cm high, 11.5 cm in diameter) filled with 10 cm of water at 25° C. The total duration of immobility (second) was measured during the last 4 minutes of a single 6-min test session. Mice were considered immobile when they made no further attempts to escape other than the movements necessary to keep their heads above the water. The potent ability of the compounds was determined as percent value of reduction in the duration of immobility comparing to the control group.

Assay [5] concerns mice. Nature of the assay: Acetic acid induced writhing test (AA writhing test). Particulars: 0.8% acetic acid i.p. 30 min later, vs control group. Type of assay: in vivo. The text has this:
Specially the results of Marble burying test (MB) in mice as noted in Table 3 show the compounds of the invention are related to the treatment of anxiety. Acetic Acid Induced Writhing Test (AA Writhing Test)
The Acetic acid-induced writhing test is a well-established nociceptive test using a chemical stimulus. Although several animal models of nociceptive tests have been developed to examine and compare the anti-nociceptive effects of different drugs, the anti-nociceptive effects of antidepressants appear to be test-dependent. Indeed, the acetic acid-induced writhing test is more sensitive to antidepressants than other tests using thermal, mechanical or electrical stimuli.
The animals were subcutaneously treated with the test compound with an injection volume of 10 ml/kg. The group treated with 30% PEG400 or saline served as a control group. Thirty minutes later, the mice were intraperitoneally treated with 0.8% (v/v) acetic acid. Each mouse was then placed in a cage for individual observation. The writhing numbers for 10 minutes were counted. The writhe is operationally defined as a contraction of the abdomen followed by stretching of the hind limbs. The potent ability of the compounds was determined as percent value of reduction in the number of writhing comparing to the control group.

Assay [6] has as its system mice. Nature of the assay: Marble burying test. Format: in vivo. Particulars: 10ip, 30 min after treatment, vs control group. The text has this: The Marble burying test is a screening tool for putative anxiolytics. In this test, control mice naturally bury glass marbles in the cage bedding and the administration of anxiolytic compounds, including Diazepam, reduces the number of buried marbles. Positive compounds in the marble burying test including selective serotonin reuptake inhibitor may be especially beneficial to obsessive-compulsive disorder.
A group of mice was intraperitoneally treated with test compound dissolved in 30% PEG400 with an injection volume of 10 ml/kg. The group treated with only 30% PEG400 served as a control group. Thirty minutes after the treatment, the animals were individually placed in a polycarbonate cage which was same as used for animal housing with an open top located within a quiet room. Each cage consisted of ⅛ inch corn bedding 5 cm deep. Twenty four clean glass marbles (15 mm diameter) were evenly spaced in four rows of six on top of the bedding. Each mouse was left in the cage for 30 minutes and the number of marbles buried (buried more than ½ or ⅔) was counted. The potent ability of the compounds was determined as percent value of reduction in the number of marbles buried comparing to the control group.

T1 sequence (P31645 whole entry): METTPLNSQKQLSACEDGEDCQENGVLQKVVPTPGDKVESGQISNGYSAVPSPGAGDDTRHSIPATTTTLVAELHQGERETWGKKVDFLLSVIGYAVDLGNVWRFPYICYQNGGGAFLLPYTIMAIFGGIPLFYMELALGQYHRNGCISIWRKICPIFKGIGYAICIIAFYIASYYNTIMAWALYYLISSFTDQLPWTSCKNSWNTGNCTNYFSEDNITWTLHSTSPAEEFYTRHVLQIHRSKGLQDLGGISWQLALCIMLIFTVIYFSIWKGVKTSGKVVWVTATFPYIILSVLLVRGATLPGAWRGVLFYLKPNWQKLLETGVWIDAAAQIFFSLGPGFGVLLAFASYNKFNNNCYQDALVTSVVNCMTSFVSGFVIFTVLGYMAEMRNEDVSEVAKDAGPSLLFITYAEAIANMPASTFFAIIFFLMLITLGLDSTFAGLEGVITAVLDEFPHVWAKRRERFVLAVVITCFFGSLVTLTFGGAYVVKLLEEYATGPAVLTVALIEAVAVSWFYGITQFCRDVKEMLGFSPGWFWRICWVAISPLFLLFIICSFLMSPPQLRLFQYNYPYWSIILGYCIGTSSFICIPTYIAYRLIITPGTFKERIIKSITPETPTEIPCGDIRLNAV
T3 sequence (Q01959 whole entry): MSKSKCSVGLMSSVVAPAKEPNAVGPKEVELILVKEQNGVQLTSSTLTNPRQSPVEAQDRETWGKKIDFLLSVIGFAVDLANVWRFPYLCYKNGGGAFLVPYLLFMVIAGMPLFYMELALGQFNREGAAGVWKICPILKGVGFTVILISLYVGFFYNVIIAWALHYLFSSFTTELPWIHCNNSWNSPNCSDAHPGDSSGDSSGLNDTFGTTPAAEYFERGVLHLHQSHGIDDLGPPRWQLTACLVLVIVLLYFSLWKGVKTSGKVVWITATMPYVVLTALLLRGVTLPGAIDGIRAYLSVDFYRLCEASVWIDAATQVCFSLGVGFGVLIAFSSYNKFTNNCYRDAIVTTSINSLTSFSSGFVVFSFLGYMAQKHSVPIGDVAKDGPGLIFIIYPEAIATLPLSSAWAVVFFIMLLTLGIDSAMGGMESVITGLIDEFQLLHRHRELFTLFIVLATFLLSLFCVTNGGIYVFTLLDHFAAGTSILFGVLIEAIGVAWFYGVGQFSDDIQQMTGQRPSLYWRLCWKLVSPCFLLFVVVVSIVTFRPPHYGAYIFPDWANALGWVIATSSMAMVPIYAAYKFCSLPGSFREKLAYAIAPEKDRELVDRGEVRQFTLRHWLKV

On to `Cc1ccc2cc([C@H]([C@H]3CCCNC3)n3ncnn3)ccc2c1` [Example 85, (3S)-3-[(S)-(6-methylnaphthalen-2-yl)(2H-tetrazol-2-yl)methyl]piperidine], for which the inhibition at 0.1 µM in assay [1] was found to be 94%; in assay [2], 74%; in assay [3], 81%. In addition, the inhibition in vivo at 30 mg/kg with mice [4] was 11.3%. The “Reduction % (number of writhing) at 10sc” value in the assay on mice [5] was 46.4% (at 10sc).
As to `Clc1ccc2cc([C@H]([C@H]3CCCNC3)n3ncnn3)ccc2c1` [Example 68, (3S)-3-[(S)-(6-chloronaphthalen-2-yl)(2H-tetrazol-2-yl)methyl]piperidine], the inhibition at 0.1 µM in assay [1] turned out to be 96%; in assay [2] it was 57%; in assay [3], 63%. In addition, the inhibition in vivo at 30 mg/kg with mice [4] turned out to be 7.1%. For the same molecule, the “Reduction % (number of writhing) at 10sc” value in the assay with mice [5] is given as 48.1% (at 10sc).
Take `c1ccc2cc([C@H]([C@H]3CCCNC3)n3cncn3)ccc2c1` [Example 90, (3S)-3-[(S)-naphthalen-2-yl(1H-1,2,4-triazol-1-yl)methyl]piperidine]: the inhibition at 0.1 µM in assay [1] amounted to 87%; in assay [2], 39%; in assay [3], 44%.
In the case of `c1ccc2cc([C@@H]([C@@H]3CCCNC3)n3nccn3)ccc2c1` [Example 13, (3R)-3-[(R)-naphthalen-2-yl(2H-1,2,3-triazol-2-yl)methyl]piperidine], the inhibition at 0.1 µM was found to be 84% in assay [1], 87% in assay [2] and 63% in assay [3]. Moreover, the inhibition in vivo at 30 mg/kg with mice [4] was found to be 9.4%. The “Reduction % at 30sc (number of writhing)” value in the assay with mice [5] turned out to be 71.8%.
Take `Cc1ccc2cc([C@@H]([C@H]3CCCNC3)n3ncnn3)ccc2c1` [Example 86, (3S)-3-[(R)-(6-methylnaphthalen-2-yl)(2H-tetrazol-2-yl)methyl]piperidine]: the figures for the inhibition at 0.1 µM in assay [1], in assay [2] and in assay [3] were 93%, -1% and 35%, respectively. Moreover, the inhibition in vivo at 30 mg/kg with mice [4] was determined as 13.4%.
The like results for `Fc1ccc2cc([C@@H]([C@H]3CCCNC3)n3ncnn3)ccc2c1` [Example 72, (3S)-3-[(R)-(6-fluoronaphthalen-2-yl)(2H-tetrazol-2-yl)methyl]piperidine] were, in that order, 86%, 6%, 2% and 46.7%.
Turning to `c1ccc(-c2nnn([C@H](c3ccc4ccccc4c3)[C@H]3CCCNC3)n2)cc1` [Example 75, (3S)-3-[(S)-naphthalen-2-yl-(5-phenyl-tetrazol-2-yl)methyl]piperidine], the inhibition at 0.1 µM in assay [1] was 86%; in assay [2], -1%; in assay [3], 41%.
As to `c1ccc2cc([C@@H]([C@@H]3CCCNC3)n3ncnn3)ccc2c1` [Example 1, (3R)-3-[(R)-naphthalen-2-yl(2H-tetrazol-2-yl)methyl]piperidine], the inhibition at 0.1 µM in assay [1] turned out to be 81%; in assay [2], 94%; in assay [3], 88%. In addition, the inhibition in vivo at 30 mg/kg in the assay on mice [4] turned out to be 56.3%. For the same molecule, the “Reduction % (number of marbles buried) at 10ip” value in the assay on mice [6] was 57.5% (at 10ip). The “Reduction % at 30sc (number of writhing)” value in the assay with mice [5] stood at 70.8%.
Turning to `Clc1ccc2cc([C@@H]([C@H]3CCCNC3)n3ncnn3)ccc2c1` [Example 70, (3S)-3-[(R)-(6-chloronaphthalen-2-yl)(2H-tetrazol-2-yl)methyl]piperidine], the inhibition at 0.1 µM was 95% in assay [1], 14% in assay [2] and 3% in assay [3].
The like results for `c1ccc2cc([C@H]([C@H]3CCCNC3)n3nc4ccccc4n3)ccc2c1` [Example 80, 2-{(S)-naphthalen-2-yl[(3S)-piperidin-3-yl]methyl}-2H-benzotriazole] were, in that order, 59%, 55% and 84%.
Turning to `c1ccc2cc([C@H]([C@H]3CCCNC3)n3nccn3)ccc2c1` [Example 14, (3S)-3-[(S)-naphthalen-2-yl(2H-1,2,3-triazol-2-yl)methyl]piperidine], the inhibition at 0.1 µM in assay [1] worked out at 76%; in assay [2] it was 70%; in assay [3], 52%. Besides, the inhibition in vivo at 30 mg/kg in the assay on mice [4] was 6.4%.
The like results for `Clc1ccc2cc([C@@H]([C@@H]3CCCNC3)n3ncnn3)ccc2c1` [Example 67, (3R)-3-[(R)-(6-chloronaphthalen-2-yl)(2H-tetrazol-2-yl)methyl]piperidine] were, in that order, 97%, 90%, 81% and 2.4%.
On to `COc1ccc2cc([C@H]([C@H]3CCCNC3)n3ncnn3)ccc2c1` [Example 35, (3S)-3-[(S)-(6-methoxynaphthalen-2-yl)(2H-tetrazol-2-yl)methyl]piperidine], for which the inhibition at 0.1 µM in assay [1] came to 76%; in assay [2], 72%; in assay [3], 78%. The inhibition in vivo at 30 mg/kg in the assay with mice [4] stood at 32.7%.
For `Cc1nnn([C@H](c2ccc3ccccc3c2)[C@H]2CCCNC2)n1` [Example 10, (3S)-3-[(S)-(5-methyl-2H-tetrazol-2-yl)(naphthalen-2-yl)methyl]piperidine], the inhibition at 0.1 µM amounted to 93% in assay [1], 87% in assay [2] and 93% in assay [3].
For `Fc1ccc2cc([C@H]([C@@H]3CCCNC3)n3ncnn3)ccc2c1` [Example 84, (3R)-3-[(S)-(6-fluoronaphthalen-2-yl)(2H-tetrazol-2-yl)methyl]piperidine], the inhibition at 0.1 µM in assay [1] is 44%; in assay [2], 5%; in assay [3], -4%.
